Measured values as given in ChEMBL document CHEMBL6120949, “Fully Synthetic TF-Based Self-Adjuvanting Vaccine Simultaneously Triggers iNKT Cells and Mincle and Protects Mice against Tumor Development” (2024).
Active and inactive are the calls of the source. The rule behind the calls is not given here.

Tests used:
Mus musculus [1] = experiment: Immunization of Balb/c mouse assessed as increase in IgG titer compound administered as liposomes subcutaneously on day 0 in presence of TF followed by administration of booster doses on days 14, 21 and 28 measured on days 21, 27 and 38 by ELISA; assay type: functional, organism-based; conditions: route sc, time 38.0 day
Mus musculus [2] = experiment: Antitumor activity in cyclophosphamide-treated surviving Balb/c mouse assessed as increase in IgG antibody titer compound administered as liposomes subcutaneously on day 0 in presence of TF followed by administration of booster doses on days 14, 21 and 28 and implantation of mouse TA3/Ha cells on day 35 measured upto 50 days post-tumor challenge followed by re-implantation of another mouse TA3/Ha cells measured for another 30 days post-tumor challenge by ELISA; assay type: functional, organism-based; conditions: route sc, time <= 115.0 day
[3] = biological target: T1, C-type lectin domain family 4 member E (Homo sapiens) (UniProt Q9ULY5); experiment: Binding affinity to Fc-fused human Mincle incubated for 1.5 hrs by ELISA
T1 sequence (whole entry): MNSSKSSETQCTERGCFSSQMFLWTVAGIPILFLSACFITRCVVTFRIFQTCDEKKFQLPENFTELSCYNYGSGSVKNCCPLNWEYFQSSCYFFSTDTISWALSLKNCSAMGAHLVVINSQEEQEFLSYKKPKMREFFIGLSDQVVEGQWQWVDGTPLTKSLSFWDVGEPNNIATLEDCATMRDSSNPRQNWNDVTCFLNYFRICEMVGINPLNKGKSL

Mus musculus [4] = experiment: (§1) Antitumor activity in cyclophosphamide-treated Balb/c mouse assessed as average survival time compound administered as liposomes subcutaneously on day 0 in presence of TF followed by administration of booster doses on days 14, 21 and 28 and implantation of mouse TA3/Ha cells on day 35 measured upto 50 days post-tumor challenge; assay type: functional; conditions: route sc; time <= 85 day
TA3/Ha [5] = experiment: Binding ability of anti-serum derived from compound-vaccinated mouse to TF-positive mouse TA3/Ha cells cultured with FITC-labeled anti-IgG Ab assessed as positive fluorescent peak shift by FACS analysis; assay type: functional, cell-based
TA3/Ha [6] = experiment: Binding ability of anti-serum derived from compound-vaccinated surviving mouse to TF-positive mouse TA3/Ha cells cultured with FITC-labeled anti-IgG Ab assessed as positive fluorescent peak shift by FACS analysis; assay type: functional, cell-based
4T1-Luc [7] = experiment: Binding ability of anti-serum derived from compound-vaccinated mouse to TF-positive mouse 4T1-Luc cells cultured with FITC-labeled anti-IgG Ab assessed as positive fluorescent peak shift by FACS analysis; assay type: functional, cell-based
MDA-MB-468 [8] = experiment: Cytotoxicity against TF-negative human MDA-MB-468 cells treated with anti-serum derived from compound-vaccinated mouse for 2 hrs followed by anti-serum washout and addition of rabbit complement serum measured after 1 hr by LDH assay; assay type: functional, cell-based
4T1-Luc [9] = experiment: Cytotoxicity against TF-positive mouse 4T1-Luc cells treated with anti-serum derived from compound-vaccinated mouse for 2 hrs followed by anti-serum washout and addition of rabbit complement serum measured after 1 hr by LDH assay; assay type: functional, cell-based
TA3/Ha [10] = experiment: Cytotoxicity against TF-positive mouse TA3/Ha cells treated with anti-serum derived from compound-vaccinated mouse for 2 hrs followed by anti-serum washout and addition of rabbit complement serum measured after 1 hr by LDH assay; assay type: functional, cell-based
Mus musculus [11] = experiment: as §1, with “protection against tumor development” for “average survival time”; assay type: functional, organism-based; conditions: route sc, time <= 85.0 day
Mus musculus [12] = experiment: Immunization of Balb/c mouse assessed as decrease in TF-specific IgM titer compound administered as liposomes subcutaneously on day 0 in presence of TF followed by administration of booster doses on days 14, 21 and 28 measured on days 21, 27 and 38 by ELISA; assay type: functional, organism-based; conditions: route sc, time 38.0 day
Mus musculus [13] = experiment: Immunization of Balb/c mouse assessed as IgG titer compound administered as liposomes subcutaneously on day 0 in presence of TF followed by administration of booster doses on days 14, 21 and 28 measured on days 21, 27 and 38 by ELISA; assay type: functional; conditions: route sc; time 38 day
Mus musculus [14] = experiment: as §1, with “rejection of tumor” for “average survival time”, “challenge followed by re-implantation of another mouse TA3/Ha cells measured for another 100 days post-tumor challenge” for “challenge”; assay type: functional, organism-based; conditions: route sc, time 185.0 day
Mus musculus [15] = experiment: Immunization of Balb/c mouse assessed as increase in kappa light chain titer compound administered as liposomes subcutaneously on day 0 in presence of TF followed by administration of booster doses on days 14, 21 and 28 measured on days 21, 27 and 38 by ELISA; assay type: functional, organism-based; conditions: route sc, time 38.0 day
Mus musculus [16] = experiment: as §1, with “as” for “as average”, “ratio” for “time”, “challenge relative to control” for “challenge”; assay type: functional; conditions: route sc; time <= 85 day
MDA-MB-468 [17] = experiment: Binding ability of anti-serum derived from compound-vaccinated mouse to TF-negative human MDA-MB-468 cells cultured with FITC-labeled anti-IgG Ab assessed as positive fluorescent peak shift by FACS analysis; assay type: functional, cell-based
Mus musculus [18] = experiment: Immunization of Balb/c mouse assessed as increase in IFN-gamma level compound administered as liposomes subcutaneously on day 0 in presence of TF followed by administration of booster doses on days 14, 21 and 28 measured on days 21, 27 and 38 by ELISA; assay type: functional, organism-based; conditions: route sc, time 38.0 day
Mus musculus [19] = experiment: Immunization of Balb/c mouse assessed as IFN-gamma level compound administered as liposomes subcutaneously on day 0 in presence of TF followed by administration of booster doses on days 14, 21 and 28 measured on days 21, 27 and 38 by ELISA; assay type: functional; conditions: route sc; time 38 day
Mus musculus [20] = experiment: as §1, with “in” for “in cyclophosphamide-treated”; assay type: functional; conditions: route sc; time <= 85 day
Mus musculus [21] = experiment: as §1, with “in” for “in cyclophosphamide-treated”, “as” for “as average”, “ratio” for “time”, “challenge relative to control” for “challenge”; assay type: functional; conditions: route sc; time <= 85 day
[22] = biological target: T2, Antigen-presenting glycoprotein CD1d1 (Mus musculus) (UniProt P11609); experiment: Binding affinity to His-tagged mouse CD1d incubated for 1.5 hrs by ELISA
T2 sequence (whole entry): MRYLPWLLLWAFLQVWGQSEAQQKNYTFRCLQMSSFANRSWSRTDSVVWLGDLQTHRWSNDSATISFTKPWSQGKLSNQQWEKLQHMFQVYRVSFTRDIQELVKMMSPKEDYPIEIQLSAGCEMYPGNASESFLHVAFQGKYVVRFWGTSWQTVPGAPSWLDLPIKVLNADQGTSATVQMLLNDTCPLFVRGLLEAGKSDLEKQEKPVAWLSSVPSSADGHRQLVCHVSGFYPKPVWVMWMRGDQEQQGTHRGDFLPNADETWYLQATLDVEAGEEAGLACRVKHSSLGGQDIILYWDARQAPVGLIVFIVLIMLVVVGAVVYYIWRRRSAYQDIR

Mus musculus [23] = experiment: Immunization of Balb/c mouse assessed as increase in IgG2a titer compound administered as liposomes subcutaneously on day 0 in presence of TF followed by administration of booster doses on days 14, 21 and 28 measured on days 21, 27 and 38 by ELISA; assay type: functional, organism-based; conditions: route sc, time 38.0 day

Compound	Activity (Mus musculus [1])	Activity (Mus musculus [2])	Activity [3]	Time (Mus musculus [4]) [days]	Activity (TA3/Ha [5])	Activity (TA3/Ha [6])	Activity (4T1-Luc [7])	Activity (MDA-MB-468 [8])	Activity (4T1-Luc [9])	Activity (TA3/Ha [10])	Activity (Mus musculus [11])	Activity (Mus musculus [12])	Activity (Mus musculus [13])	Activity (Mus musculus [14])	Activity (Mus musculus [15])	Survival (Mus musculus [16]) [%]	Activity (MDA-MB-468 [17])	Activity (Mus musculus [18])	Activity [22]	other results
CCCCCCCCCC(CCCCCCCCC)CC(=O)OC[C@H]1O[C@H](O[C@H]2O[C@H](COC(=O)CC(CCCCCCCCC)CCCCCCCCC)[C@@H](OCCOCCNC(=O)CCC(=O)NCc3cn(CCO[C@H]4O[C@H](CO)[C@H](O)[C@H](O[C@@H]5O[C@H](CO)[C@H](O)[C@H](O)[C@H]5O)[C@H]4NC(C)=O)nn3)[C@H](O)[C@H]2O)[C@H](O)[C@@H](O)[C@@H]1O	Active	Active	Active	38.8	Active	Active	Active	inactive	Active; Result Reveals That The Anti-Serum Induced By Compound Effectively Activated The Complement System	Active; Result Reveals That The Anti-Serum Induced By Compound Effectively Activated The Complement System	Active	Active; Result Reveals That Efficient Conversion Of Igm To Igg Had Occurred And That Long-Term Secondary Immune Responses Had Been Triggered	66937	Active	Active; Compound Induced Strong Tf-Specific And T-Cell-Dependent Immune Response	50	inactive	Active		
CCCCCCCCCCCCCCCCCCCCCCCCCC(=O)N[C@@H](CO[C@H]1O[C@H](CNC(=O)CCCCC(=O)NCCCC[C@H](NC(=O)CCC(=O)NCCOCCO[C@H]2[C@H](O)[C@@H](O)[C@@H](O[C@H]3O[C@H](COC(=O)CC(CCCCCCCCC)CCCCCCCCC)[C@@H](O)[C@H](O)[C@H]3O)O[C@@H]2COC(=O)CC(CCCCCCCCC)CCCCCCCCC)C(=O)NCc2cn(CCO[C@H]3O[C@H](CO)[C@H](O)[C@H](O[C@@H]4O[C@H](CO)[C@H](O)[C@H](O)[C@H]4O)[C@H]3NC(C)=O)nn2)[C@H](O)[C@H](O)[C@H]1O)[C@H](O)[C@H](O)CCCCCCCCCCCCCC	Active	Active; Exhibited Superior Effect	Active	43.8	Active; Compound-Derived Antibodies In Antiserum Exhibited Strongest Binding Activity	Active	Active; Compound-Derived Antibodies In Antiserum Exhibited Strongest Binding Activity	inactive	Active; Result Reveals That The Anti-Serum Induced By Compound Effectively Activated The Complement System	Active; Result Reveals That The Anti-Serum Induced By Compound Effectively Activated The Complement System	Active	Active; Result Reveals That Efficient Conversion Of Igm To Igg Had Occurred And That Long-Term Secondary Immune Responses Had Been Triggered	96611	Active	Active; Compound Induced Strong Tf-Specific And T-Cell-Dependent Immune Response	75	inactive	Active	Active	Activity (Mus musculus [19]): 263 pg/mL; Time (Mus musculus [20]): 34.5 days; Survival (Mus musculus [21]): 37.5%; Activity (Mus musculus [23]): Active
CCCCCCCCCCCCCCCCCCCCCCCCCC(=O)N[C@@H](CO[C@H]1O[C@H](CNC(=O)CCCCC(=O)NCc2cn(CCO[C@H]3O[C@H](CO)[C@H](O)[C@H](O[C@@H]4O[C@H](CO)[C@H](O)[C@H](O)[C@H]4O)[C@H]3NC(C)=O)nn2)[C@H](O)[C@H](O)[C@H]1O)[C@H](O)[C@H](O)CCCCCCCCCCCCCC	Active	Active		34.4	Active	Active	Active	inactive	Active; Result Reveals That The Anti-Serum Induced By Compound Effectively Activated The Complement System	Active; Result Reveals That The Anti-Serum Induced By Compound Effectively Activated The Complement System	Active	Active; Result Reveals That Efficient Conversion Of Igm To Igg Had Occurred And That Long-Term Secondary Immune Responses Had Been Triggered	54112	Active	Active; Compound Induced Strong Tf-Specific And T-Cell-Dependent Immune Response	37.5	inactive	Active	Active	
